Source: ChEMBL document CHEMBL3046762, “Synthesis and biological evaluation of 2-amino-5-sulfanyl-1,3,4-thiadiazole derivatives as antidepressant, anxiolytics and anticonvulsant agents” (2011)
The source made the active and inactive calls. The calls are words filed in the database; no cut-off is given here.

Key:
Mus musculus [1] = experiment: Antidepressant activity in Mus musculus (mouse) assessed as increase in mobile phase at 30 mg/kg, ip measured after 30 min by tail suspension test; assay type: functional; conditions: route intraperitoneal
Mus musculus [2] = experiment: Anxiolytic activity in Mus musculus balb/cj (mouse) assessed as time spent in open arm at 30 mg/kg, ip measured after 30 min by elevated pluze maze test (reference value: 12.25 +/- 0.02 sec); assay type: functional; conditions: route intraperitoneal
Mus musculus [3] = experiment: Anxiolytic activity in Mus musculus Swiss (mouse) assessed as time spent in light chamber at 30 mg/kg, ip measured after 30 min by light and dark model test (reference value: 130.2 +/- 0.01 sec); assay type: functional; conditions: route intraperitoneal
Mus musculus [4] = experiment: Anxiolytic activity in Mus musculus balb/cj (mouse) assessed as preference to open arm at 30 mg/kg, ip measured after 30 min by elevated pluze maze test; assay type: functional; conditions: route intraperitoneal
Rattus norvegicus [5] = experiment: Anticonvulsant activity in Rattus norvegicus Wistar albino (rat) assessed as reduction in pentyleneterazole-induced mortality at 30 mg/kg, ip pretreated 30 min prior to pentylenetetrazole challenge; assay type: functional, organism-based; design: dose 30 mg/kg
Mus musculus [6] = experiment: Antidepressant activity in Mus musculus (mouse) assessed as decrease in immobility at 30 mg/kg, ip measured after 30 min by despair swim test; assay type: functional; conditions: 0.5 h, route intraperitoneal
Rattus norvegicus [7] = experiment: Anticonvulsant activity in Rattus norvegicus Wistar albino (rat) assessed as inhibition of pentyleneterazole-induced clonic convulsion measured as onset of convulsion at 30 mg/kg, ip pretreated 30 min prior to pentylenetetrazole challenge (reference value: 48.25 +/- 0.01 sec); assay type: functional; conditions: route intraperitoneal
Rattus norvegicus [8] = experiment: Anticonvulsant activity in Rattus norvegicus Wistar albino (rat) assessed as protection against maximal electroshock-induced convulsion at 30 mg/kg, ip measured after 30 min; assay type: functional; conditions: route intraperitoneal
Rattus norvegicus [9] = experiment: Anticonvulsant activity in Rattus norvegicus Wistar albino (rat) assessed as duration of tonic hind limb extensor at 30 mg/kg, ip measured after 30 min by maximal electroshock-induced convulsion test (reference value: 15.71 +/- 0.01 sec); assay type: functional, Hindlimb; conditions: route intraperitoneal
Rattus norvegicus [10] = experiment: Anticonvulsant activity in Rattus norvegicus Wistar albino (rat) assessed as reduction in pentyleneterazole-induced mortality at 4 mg/kg, ip pretreated 30 min prior to pentylenetetrazole challenge; assay type: functional, organism-based; design: dose 4 mg/kg
Rattus norvegicus [11] = experiment: Anticonvulsant activity in Rattus norvegicus Wistar albino (rat) assessed as duration of tonic hind limb extensor at 25 mg/kg, ip measured after 30 min by maximal electroshock-induced convulsion test; assay type: functional, organism-based; design: dose 25 mg/kg; conditions: Hindlimb
Rattus norvegicus [12] = experiment: Anticonvulsant activity in Rattus norvegicus Wistar albino (rat) assessed as protection against maximal electroshock-induced convulsion at 25 mg/kg, ip measured after 30 min; assay type: functional; conditions: route intraperitoneal
Mus musculus [13] = experiment: Anxiolytic activity in Mus musculus balb/cj (mouse) assessed as time spent in open arm at 2 mg/kg, ip measured after 30 min by elevated pluze maze test (reference value: 12.25 +/- 0.02 sec); assay type: functional; conditions: route intraperitoneal
Mus musculus [14] = experiment: Antidepressant activity in Mus musculus (mouse) assessed as decrease in immobility at 15 mg/kg, ip measured after 30 min by despair swim test; conditions: 0.5 h, read-out: INH

Row | SMILES | Activity (Mus musculus [1]) [%] | Time (Mus musculus [2]) [s] | Time (Mus musculus [3]) [s] | Activity (Mus musculus [4]) [%] | Activity (Rattus norvegicus [5]) | inhibition in vivo at 30 mg/kg (Mus musculus [6]) [%] | Time (Rattus norvegicus [7]) [s] | Activity (Rattus norvegicus [8]) [%] | Time (Rattus norvegicus [9]) [s] | Activity (Rattus norvegicus [10]) | Activity (Rattus norvegicus [11]) | Activity (Rattus norvegicus [12]) [%] | Time (Mus musculus [13]) [s] | inhibition in vivo at 15 mg/kg (Mus musculus [14]) [%]
1 | NS(=O)(=O)c1ccc(Sc2nnc(Nc3ccc(F)cc3)s2)cc1 | 40.31 | 46.31 | 185.9 | 18.01 | Active | 50.5 | 171.25 | 66.66 | 4.5 |  |  |  |  | 
2 | O=S(=O)(Cl)c1ccc(Sc2nnc(Nc3ccc(Br)cc3)s2)cc1 | 20.57 | 25.2 | 159.3 | 9.25 | Active | 30.7 | 70.25 | 0 | 7.63 |  |  |  |  | 
3 | CN1C(=O)CN=C(c2ccccc2)c2cc(Cl)ccc21 |  |  |  |  |  |  |  |  |  | Active |  |  |  | 
4 | NS(=O)(=O)c1ccc(Sc2nnc(Nc3ccc(Br)cc3)s2)cc1 | 15.68 | 29.26 | 162.3 | 8.01 | Active | 27.2 | 71.9 | 33.33 | 8.01 |  |  |  |  | 
5 | NS(=O)(=O)c1ccc(Sc2nnc(Nc3ccc(S(=O)(=O)Cl)cc3)s2)cc1 | 40.58 | 45.93 | 180.25 | 17.2 | Active | 50.4 | 175.2 | 50 | 4.69 |  |  |  |  | 
6 | O=S(=O)(Cl)c1ccc(Sc2nnc(Nc3ccc(F)cc3)s2)cc1 | 21.51 | 25.26 | 166.3 | 10.54 | Active | 22.8 | 101.26 | 0 | 8.25 |  |  |  |  | 
7 | O=S(=O)(Cl)c1ccc(Nc2nnc(Sc3ccc(S(=O)(=O)Cl)cc3)s2)cc1 | 10.09 | 27.63 | 172.5 | 7.9 | Active | 25.9 | 125.2 | 0 | 8.5 |  |  |  |  | 
8 | NS(=O)(=O)c1ccc(Sc2nnc(Nc3ccc(C(F)(F)F)cc3)s2)cc1 | 31.29 | 23.72 | 151.26 | 8.92 | Active | 27.9 | 126.2 | 33.33 | 7.37 |  |  |  |  | 
9 | Cc1ccc(Nc2nnc(Sc3ccc(S(=O)(=O)Cl)cc3)s2)cc1 | 15.19 | 22.2 | 169.25 | 7.58 | Active | 29.2 | 101.26 | 16.66 | 8.01 |  |  |  |  | 
10 | O=C1NC(=O)C(c2ccccc2)(c2ccccc2)N1 [PHENYTOIN] |  |  |  |  |  |  |  |  |  |  | Active | 100 |  | 
11 | CNCCC(Oc1ccc(C(F)(F)F)cc1)c1ccccc1.Cl (stereo not drawn) [FLUOXETINE HYDROCHLORIDE] |  |  |  |  |  |  |  |  |  |  |  |  | 60.01 | 58.6
12 | O=S(=O)(Cl)c1ccc(Sc2nnc(Nc3ccc(C(F)(F)F)cc3)s2)cc1 | 45.97 | 47.92 | 192 | 18.92 | Active | 53.5 | 180.25 | 66.66 | 4.42 |  |  |  |  | 
13 | NS(=O)(=O)c1ccc(Sc2nnc(Nc3ccc(Cl)cc3)s2)cc1 | 33.33 | 45.51 | 178.2 | 16.35 | Active | 29.2 | 151.3 | 50 | 5.17 |  |  |  |  | 
14 | NS(=O)(=O)c1ccc(Nc2nnc(Sc3ccc(S(N)(=O)=O)cc3)s2)cc1 | 10.06 | 26.64 | 133.2 | 6.65 |  | 25.2 |  | 0 | 8.25 |  |  |  |  | 
15 | Cc1ccc(Nc2nnc(Sc3ccc(S(N)(=O)=O)cc3)s2)cc1 | 42.21 | 45.69 | 190.25 | 18.25 | Active | 51.5 | 170.26 | 50 | 4.52 |  |  |  |  | 
16 | O=S(=O)(Cl)c1ccc(Sc2nnc(Nc3ccc(C(Cl)(Cl)Cl)cc3)s2)cc1 | 19.16 | 26.2 | 170.5 | 8.75 | Active | 30.2 | 99.9 | 16.66 | 7.01 |  |  |  |  | 
17 | NS(=O)(=O)c1ccc(Sc2nnc(Nc3ccc(C(Cl)(Cl)Cl)cc3)s2)cc1 | 16.39 | 24.2 | 162 | 7.85 | Active | 25 | 106.7 | 16.66 | 6.96 |  |  |  |  | 
18 | O=S(=O)(Cl)c1ccc(Sc2nnc(Nc3ccc(Cl)cc3)s2)cc1 | 15.68 | 30.01 | 151.5 | 9.75 | Active | 23.9 | 63.6 | 16.66 | 7.55 |  |  |  |  | 
